pIC50: −log10 of the molar value.
Test system: 435261-313-R-J1-PDC tumor spheroid viability
Assay: Anticancer human tumor 435261-313-R-J1-PDC patient-derived colon adenocarcinoma cell line growth inhibition [PI3K]
Conditions: spheroids with HUVEC and MSC; for pIC50: curve of first compound; for viability, T/C: stronger effect = lower value
In short: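 Tumor cells grown as multi-cell spheroids with HUVEC endothelial cells and MSC fibroblast-like stroma were treated with targeted agents combined with inavolisib, alpelisib, duvelisib or copanlisib. Doses fell in half-log steps from near clinical Cmax, else from 10 microM. Viability was measured.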

[1] = second compound 0.00316 µM, first compound 0.0316 µM
[2] = second compound 0.00316 µM, first compound 0.1 µM
[3] = second compound 0.00316 µM, first compound 0.316 µM
[4] = second compound 0.00316 µM, first compound 1 µM
[5] = second compound 0.00316 µM, first compound 3.16 µM
[6] = second compound 0.00316 µM, first compound 10 µM
[7] = second compound 0.01 µM, first compound 0.0316 µM
[8] = second compound 0.01 µM, first compound 0.1 µM
[9] = second compound 0.01 µM, first compound 0.316 µM
[10] = second compound 0.01 µM, first compound 1 µM
[11] = second compound 0.01 µM, first compound 3.16 µM
[12] = second compound 0.01 µM, first compound 10 µM
[13] = second compound 0.0316 µM, first compound 0.0316 µM
[14] = second compound 0.0316 µM, first compound 0.1 µM
[15] = second compound 0.0316 µM, first compound 0.316 µM
[16] = second compound 0.0316 µM, first compound 1 µM
[17] = second compound 0.0316 µM, first compound 3.16 µM
[18] = second compound 0.0316 µM, first compound 10 µM
[19] = second compound 0.1 µM, first compound 0.0316 µM
[20] = second compound 0.1 µM, first compound 0.1 µM
[21] = second compound 0.1 µM, first compound 0.316 µM
[22] = second compound 0.1 µM, first compound 1 µM
[23] = second compound 0.1 µM, first compound 3.16 µM
[24] = second compound 0.1 µM, first compound 10 µM
[25] = second compound 0.316 µM, first compound 0.0316 µM
[26] = second compound 0.316 µM, first compound 0.1 µM
[27] = second compound 0.316 µM, first compound 0.316 µM
[28] = second compound 0.316 µM, first compound 1 µM
[29] = second compound 0.316 µM, first compound 3.16 µM
[30] = second compound 0.316 µM, first compound 10 µM
[31] = second compound 1 µM, first compound 0.0316 µM
[32] = second compound 1 µM, first compound 0.1 µM
[33] = second compound 1 µM, first compound 0.316 µM
[34] = second compound 1 µM, first compound 1 µM
[35] = second compound 1 µM, first compound 3.16 µM
[36] = second compound 1 µM, first compound 10 µM
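Further: spheroids exposed to compounds for 7 days.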

In the case of `CCCS(=O)(=O)Nc1ccc(F)c(C(=O)c2c[nH]c3ncc(-c4ccc(Cl)cc4)cc23)c1F` + COc1c(OCCCN2CCOCC2)ccc2c3n(c(=NC(=O)c4cnc(N)nc4)nc12)CCN3, the pIC50 (second compound 0.00316 µM) was 5.34, the pIC50 (second compound 0.01 µM) was 5.52 and the pIC50 (second compound 0.0316 µM) was > 7.50. For the same molecule, the pIC50 (second compound 0.1 µM) was > 7.50, the pIC50 (second compound 0.316 µM) was > 7.50 and the pIC50 (second compound 1 µM) was > 7.50. The viability, T/C [1] was 66.6%, the viability, T/C [2] was 77.1% and the viability, T/C [3] was 103%. For the same molecule, the viability, T/C [4] was 83.7%, the viability, T/C [5] was 72.4% and the viability, T/C [6] was 4.06%. The viability, T/C [7] was 46.7%, the viability, T/C [8] was 71.3% and the viability, T/C [9] was 70.8%. For the same molecule, the viability, T/C [10] was 91.2%, the viability, T/C [11] was 49.1% and the viability, T/C [12] was 4.19%. The viability, T/C [13] was 25.7%, the viability, T/C [14] was 40.4% and the viability, T/C [15] was 27.9%. It also gave a viability, T/C [16] of 33.9%, a viability, T/C [17] of 31.7% and a viability, T/C [18] of 5.4%. The viability, T/C [19] was 24.7%, the viability, T/C [20] was 18.1% and the viability, T/C [21] was 22%. The viability, T/C [22] was 26.3%, the viability, T/C [23] was 22.1% and the viability, T/C [24] was 4.42%. It also gave a viability, T/C [25] of 7.13%, a viability, T/C [26] of 9.16% and a viability, T/C [27] of 10.6%. It also gave a viability, T/C [28] of 13.5%, a viability, T/C [29] of 13.9% and a viability, T/C [30] of 4.25%. The viability, T/C [31] was 4.51%, the viability, T/C [32] was 3.63% and the viability, T/C [33] was 4.99%. For the same molecule, the viability, T/C [34] was 5.37%, the viability, T/C [35] was 7.06% and the viability, T/C [36] was 2.69%.
`CNC(=O)c1ccc(N2C(=S)N(c3ccc(C#N)c(C(F)(F)F)c3)C(=O)C2(C)C)cc1F` + COc1c(OCCCN2CCOCC2)ccc2c3n(c(=NC(=O)c4cnc(N)nc4)nc12)CCN3 was tested, and the pIC50 (second compound 0.00316 µM) was 5.05, the pIC50 (second compound 0.01 µM) was > 7.50 and the pIC50 (second compound 0.0316 µM) was > 7.50. The pIC50 (second compound 0.1 µM) was > 7.50, the pIC50 (second compound 0.316 µM) was > 7.50 and the pIC50 (second compound 1 µM) was > 7.50. The viability, T/C [1] was 71.2%, the viability, T/C [2] was 80.3% and the viability, T/C [3] was 40.8%. For the same molecule, the viability, T/C [4] was 63.6%, the viability, T/C [5] was 66.3% and the viability, T/C [6] was 42.7%. The viability, T/C [7] was 33.4%, the viability, T/C [8] was 46.7% and the viability, T/C [9] was 51.3%. It also gave a viability, T/C [10] of 48.2%, a viability, T/C [11] of 45.4% and a viability, T/C [12] of 39.7%. For the same molecule, the viability, T/C [13] was 33.8%, the viability, T/C [14] was 29.1% and the viability, T/C [15] was 29.9%. It also gave a viability, T/C [16] of 27.3%, a viability, T/C [17] of 23% and a viability, T/C [18] of 22.4%. For the same molecule, the viability, T/C [19] was 16.1%, the viability, T/C [20] was 13.9% and the viability, T/C [21] was 14.9%. For the same molecule, the viability, T/C [22] was 15%, the viability, T/C [23] was 15.4% and the viability, T/C [24] was 15.3%. For the same molecule, the viability, T/C [25] was 8.96%, the viability, T/C [26] was 8.69% and the viability, T/C [27] was 7.55%. For the same molecule, the viability, T/C [28] was 9.53%, the viability, T/C [29] was 7.67% and the viability, T/C [30] was 8.88%. It also gave a viability, T/C [31] of 4.12%, a viability, T/C [32] of 4.26% and a viability, T/C [33] of 4.87%. For the same molecule, the viability, T/C [34] was 4.38%, the viability, T/C [35] was 5.02% and the viability, T/C [36] was 5.37%.
With `Cn1cnc2c(F)c(Nc3ccc(Br)cc3Cl)c(C(=O)NOCCO)cc21` + COc1c(OCCCN2CCOCC2)ccc2c3n(c(=NC(=O)c4cnc(N)nc4)nc12)CCN3 the pIC50 (second compound 0.00316 µM) was > 8.02, the pIC50 (second compound 0.01 µM) was > 8.02 and the pIC50 (second compound 0.0316 µM) was > 8.02. The pIC50 (second compound 0.1 µM) was > 8.02, the pIC50 (second compound 0.316 µM) was > 8.02 and the pIC50 (second compound 1 µM) was > 8.02. The viability, T/C (second compound 0.00316 µM, first compound 0.00949 µM) was 29.7%, the viability, T/C (second compound 0.00316 µM, first compound 0.03 µM) was 25.4% and the viability, T/C (second compound 0.00316 µM, first compound 0.0949 µM) was 20.5%. It also gave a viability, T/C (second compound 0.00316 µM, first compound 0.3 µM) of 19%, a viability, T/C (second compound 0.00316 µM, first compound 0.949 µM) of 19.1% and a viability, T/C (second compound 0.00316 µM, first compound 3 µM) of 14.2%. For the same molecule, the viability, T/C (second compound 0.01 µM, first compound 0.00949 µM) was 24.2%, the viability, T/C (second compound 0.01 µM, first compound 0.03 µM) was 20.6% and the viability, T/C (second compound 0.01 µM, first compound 0.0949 µM) was 22.4%. For the same molecule, the viability, T/C (second compound 0.01 µM, first compound 0.3 µM) was 17.8%, the viability, T/C (second compound 0.01 µM, first compound 0.949 µM) was 16.4% and the viability, T/C (second compound 0.01 µM, first compound 3 µM) was 9.17%. For the same molecule, the viability, T/C (second compound 0.0316 µM, first compound 0.00949 µM) was 30.9%, the viability, T/C (second compound 0.0316 µM, first compound 0.03 µM) was 16.9% and the viability, T/C (second compound 0.0316 µM, first compound 0.0949 µM) was 14.4%. It also gave a viability, T/C (second compound 0.0316 µM, first compound 0.3 µM) of 11.1%, a viability, T/C (second compound 0.0316 µM, first compound 0.949 µM) of 11.4% and a viability, T/C (second compound 0.0316 µM, first compound 3 µM) of 3.71%. The viability, T/C (second compound 0.1 µM, first compound 0.00949 µM) was 8.18%, the viability, T/C (second compound 0.1 µM, first compound 0.03 µM) was 7.27% and the viability, T/C (second compound 0.1 µM, first compound 0.0949 µM) was 7.24%. The viability, T/C (second compound 0.1 µM, first compound 0.3 µM) was 6.07%, the viability, T/C (second compound 0.1 µM, first compound 0.949 µM) was 3.14% and the viability, T/C (second compound 0.1 µM, first compound 3 µM) was 0.52%. For the same molecule, the viability, T/C (second compound 0.316 µM, first compound 0.00949 µM) was 2.98%, the viability, T/C (second compound 0.316 µM, first compound 0.03 µM) was 2.65% and the viability, T/C (second compound 0.316 µM, first compound 0.0949 µM) was 1.65%. For the same molecule, the viability, T/C (second compound 0.316 µM, first compound 0.3 µM) was 0.71%, the viability, T/C (second compound 0.316 µM, first compound 0.949 µM) was 0.32% and the viability, T/C (second compound 0.316 µM, first compound 3 µM) was 0.75%. For the same molecule, the viability, T/C (second compound 1 µM, first compound 0.00949 µM) was 0.94%, the viability, T/C (second compound 1 µM, first compound 0.03 µM) was 0.62% and the viability, T/C (second compound 1 µM, first compound 0.0949 µM) was 0.53%. For the same molecule, the viability, T/C (second compound 1 µM, first compound 0.3 µM) was 0.36%, the viability, T/C (second compound 1 µM, first compound 0.949 µM) was 0.26% and the viability, T/C (second compound 1 µM, first compound 3 µM) was 0.49%.

Reference: PubChem BioAssay AID1963976 (Molecular Pharmacology Branch, DTP, NCI, 2024)
